These results are taken from patent US10428080B2, “TBK/IKK inhibitor compounds and uses thereof” (Merck Patent GmbH, priority 2015, dated 2019).

Structures can show the parent of a compound that is named as a salt. Where two headings read alike, the source gives them in different places.

One assay has as its target T1, TBK1 (Homo sapiens, UniProt Q9UHD2).
T1 sequence (Q9UHD2 1-729): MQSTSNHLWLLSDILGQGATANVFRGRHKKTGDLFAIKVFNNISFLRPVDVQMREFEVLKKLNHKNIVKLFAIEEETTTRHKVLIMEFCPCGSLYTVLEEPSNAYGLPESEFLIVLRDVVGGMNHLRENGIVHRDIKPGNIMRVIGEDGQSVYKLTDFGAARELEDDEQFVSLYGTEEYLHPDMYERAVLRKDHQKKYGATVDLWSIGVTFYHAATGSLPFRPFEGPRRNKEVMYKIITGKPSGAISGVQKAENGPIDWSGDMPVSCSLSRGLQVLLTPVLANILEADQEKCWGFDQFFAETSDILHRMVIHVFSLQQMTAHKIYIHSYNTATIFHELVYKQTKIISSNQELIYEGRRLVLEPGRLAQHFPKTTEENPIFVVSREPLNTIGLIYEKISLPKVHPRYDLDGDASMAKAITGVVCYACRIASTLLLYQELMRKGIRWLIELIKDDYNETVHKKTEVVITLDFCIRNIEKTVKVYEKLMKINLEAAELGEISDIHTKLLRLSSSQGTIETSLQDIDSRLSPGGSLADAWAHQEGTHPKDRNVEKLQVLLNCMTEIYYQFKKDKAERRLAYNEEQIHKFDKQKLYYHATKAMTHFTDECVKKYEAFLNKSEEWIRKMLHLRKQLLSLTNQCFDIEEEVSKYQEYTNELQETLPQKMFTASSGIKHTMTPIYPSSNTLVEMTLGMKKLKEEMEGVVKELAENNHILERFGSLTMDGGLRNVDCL
In words: TBK Biochemical Assay. The gist of the method: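 Caliper LabChip mobility-shift readout of substrate and product after 90 min of TBK1 reaction at 25° C and stop-buffer addition. Compounds tested in 1:4 serial dilution over 10 points from 30 uM final at 1% DMSO; staurosporine 10 uM final defines full inhibition.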

In another assay the target is T2, IKKε (Homo sapiens, UniProt Q14164).
T2 sequence (Q14164 1-716): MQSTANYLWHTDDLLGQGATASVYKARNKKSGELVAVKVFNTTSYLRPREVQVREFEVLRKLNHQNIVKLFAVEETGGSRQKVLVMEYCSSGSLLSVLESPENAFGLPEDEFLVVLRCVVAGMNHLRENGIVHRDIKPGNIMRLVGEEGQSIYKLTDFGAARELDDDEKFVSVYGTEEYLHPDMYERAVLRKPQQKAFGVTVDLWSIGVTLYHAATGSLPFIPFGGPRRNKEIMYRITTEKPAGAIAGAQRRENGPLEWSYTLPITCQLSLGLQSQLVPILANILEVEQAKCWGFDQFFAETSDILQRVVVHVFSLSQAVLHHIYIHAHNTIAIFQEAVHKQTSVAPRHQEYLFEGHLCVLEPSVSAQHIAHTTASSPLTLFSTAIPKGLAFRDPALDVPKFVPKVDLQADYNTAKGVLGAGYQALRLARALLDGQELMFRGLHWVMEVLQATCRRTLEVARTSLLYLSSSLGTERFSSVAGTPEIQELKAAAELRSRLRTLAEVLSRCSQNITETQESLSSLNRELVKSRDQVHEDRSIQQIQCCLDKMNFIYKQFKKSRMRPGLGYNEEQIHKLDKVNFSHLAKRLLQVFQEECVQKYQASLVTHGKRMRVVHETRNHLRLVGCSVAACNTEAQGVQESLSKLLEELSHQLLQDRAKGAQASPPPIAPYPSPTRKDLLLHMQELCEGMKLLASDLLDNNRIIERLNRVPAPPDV
In words: IKKe Biochemical Assay. In outline: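 Activity was measured as mobility-shift separation of phosphorylated from unphosphorylated substrate on a LabChip EZ Reader. Compound was titrated from 30 uM final in 10 points, 1:4 steps, with 1% DMSO, and enzyme plus substrate reacted 90 min at 25° C before stop buffer. Control wells held 10 uM staurosporine.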

The subject of assay [1] is phosphorylation of the IRF-3 protein in MDA-MB-468 cells. Put plainly: pIRF3 immunocytochemistry cell based assay. Conditions: Homo sapiens. In outline: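 After 2 h stimulation with Poly(I:C) (10 ug/ml), following 1 h compound pre-treatment (10-point, 3-fold dilution, top 10 uM), MDA-MB-468 cells were fixed and stained with anti-pIRF3 antibody. pIRF3 fluorescence was normalized to PI staining or cell count on an Acumen cytometer. IC50 curves were derived from this.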

Setting [2] is: MDA-MB-468 cells, Poly(I:C) stimulation, read-out: pIRF3 IC50.

As a reminder, the IC50 is the point on the concentration scale where inhibition reaches its midpoint. As for `COc1cc(C(=O)N2CC[C@H](N(C)C)C2)cnc1-c1cc2nccc(-c3ccc(N4CC[C@@H](F)C4)c(C#N)c3)c2o1` [Compound 448, 5-{2-[5-((S)-3-Dimethylamino-pyrrolidine-1-carbonyl)-3-methoxy-pyridin-2-yl]-furo[3,2-b]pyridin-7-yl}-2-((R)-3-fluoro-pyrrolidin-1-yl)-benzonitrile], the IC50 (at TBK1 (read-out: TBK1 IC50); at IKKε (read-out: IKKε IC50); in assay [1] (setting [2])) was under 100 nM throughout.

Turning to `COc1cc(C(=O)N(C)CCO)cnc1-c1cc2nccc(-c3ccc(NC4CCOCC4)c(C#N)n3)c2o1` [Compound 356, 6-(7-[6-cyano-5-[(oxan-4-yl)amino]pyridin-2-yl]furo[3,2-b]pyridin-2-yl)-N-(2-hydroxyethyl)-5-methoxy-N-methylpyridine-3-carboxamide], the IC50 was under 100 nM on TBK1 (read-out: TBK1 IC50), under 100 nM at IKKε (read-out: IKKε IC50) and 100 to 1000 nM in assay [1] (setting [2]).

`CN(C)C(=O)c1ccc(-c2cc3ncc(F)c(-c4ccc(OC5CCOCC5)c(C#N)c4)c3o2)c(F)c1` [Compound 301, 4-[7-[3-cyano-4-(oxan-4-yloxy)phenyl]-6-fluorofuro[3,2-b]pyridin-2-yl]-3-fluoro-N,N-dimethylbenzamide]: the results for the IC50 (at TBK1 (read-out: TBK1 IC50); at IKKε (read-out: IKKε IC50); in assay [1] (setting [2])) were under 100 nM, under 100 nM and 1000 to 5000 nM, respectively.

As to `COc1cc(C(=O)N2CC3CCC2CN3C)ccc1-c1cc2nccc(-c3ccc(OC4CCOCC4)c(C#N)c3)c2o1` (stereo not drawn) [Compound 503], the IC50 (on TBK1 (read-out: TBK1 IC50); on IKKε (read-out: IKKε IC50); in assay [1] (setting [2])) was under 100 nM throughout.

On to `COc1cc(-c2cc3nccc(-c4ccc(NC5CCOCC5)c(C#N)c4)c3o2)cnc1C(=O)N(C)C` [Compound 394, 5-(7-[3-cyano-4-[(oxan-4-yl)amino]phenyl]furo[3,2-b]pyridin-2-yl)-3-methoxy-N,N-dimethylpyridine-2-carboxamide], for which the half-inhibitory concentration (IC50) at TBK1 (read-out: TBK1 IC50) was in the range of 100 to 1000 nM; at IKKε (read-out: IKKε IC50), 100 to 1000 nM; in assay [1] (setting [2]) it was 1000 to 5000 nM.

On to `COc1cc(C(=O)N[C@H]2CCN(C)C2)ccc1-c1cc2nccc(-c3ccc(OC4CCOCC4)c(C#N)c3)c2o1` [Compound 493, 5-{2-[4-(N—((S)-methyl-pyrrolidin-3-yl)-1-carbonyl)-2-methoxy-phenyl]-furo[3,2-b]pyridin-7-yl}-2-(tetrahydro-pyran-4-yloxy)-benzonitrile], for which the IC50 at TBK1 (read-out: TBK1 IC50) was under 100 nM; on IKKε (read-out: IKKε IC50), under 100 nM; in assay [1] (setting [2]) it was 100 to 1000 nM.

With `COc1cc(-c2cc3nccc(-c4ccc(OC5CCOCC5)c(C#N)c4)c3o2)cnc1C(=O)N(C)C` [Compound 393, 5-[7-[3-cyano-4-(oxan-4-yloxy)phenyl]furo[3,2-b]pyridin-2-yl]-3-methoxy-N,N-dimethylpyridine-2-carboxamide], the values for the IC50 (on TBK1 (read-out: TBK1 IC50); at IKKε (read-out: IKKε IC50); in assay [1] (setting [2])) were 100 to 1000 nM, under 100 nM and 1000 to 5000 nM, respectively.

For the compound `COc1cc(C(=O)NCC2CCNCC2)ccc1-c1cc2nccc(-c3ccc(OC4CCOCC4)c(C#N)c3)c2o1` [Compound 92, 4-{7-[3-Cyano-4-(tetrahydro-pyran-4-yloxy)-phenyl]-furo[3,2-b]pyridin-2-yl}-3-methoxy-N-piperidin-4-ylmethyl-benzamide hydrochloride], the concentration for half-maximal inhibition (IC50) on TBK1 (read-out: TBK1 IC50) was under 100 nM; at IKKε (read-out: IKKε IC50), under 100 nM; in assay [1] (setting [2]), 100 to 1000 nM.

Regarding `COc1cc(C(=O)N(C)C)ncc1-c1cc2nccc(-c3ccc(N4CCC(F)C4)c(C#N)c3)c2o1` (stereo in doubt) [Compound 389, 5-{7-[3-Cyano-4-((S)-3-fluoro-pyrrolidin-1-yl)-phenyl]-furo[3,2-b]pyridin-2-yl}-4-methoxy-pyridine-2-carboxylic acid dimethylamide], the values for the IC50 (on TBK1 (read-out: TBK1 IC50); on IKKε (read-out: IKKε IC50); in assay [1] (setting [2])) were under 100 nM, under 100 nM and 100 to 1000 nM, respectively.

Take `COc1cc(C(=O)N(C)C)ccc1-c1cc2nccc(-c3ccc(NC4CC(C)(C)OC(C)(C)C4)c(C#N)c3)c2o1` [Compound 471, 4-(7-[3-cyano-4-[(2,2,6,6-tetramethyloxan-4-yl)amino]phenyl]furo[3,2-b]pyridin-2-yl)-3-methoxy-N,N-dimethylbenzamide]: the IC50 at TBK1 (read-out: TBK1 IC50) is 100 to 1000 nM; on IKKε (read-out: IKKε IC50) it was 100 to 1000 nM; in assay [1] (setting [2]), 1000 to 5000 nM.

For `COc1cc(C(=O)N2CC3COCC3C2)ccc1-c1cc2nccc(-c3ccc(NC4CCOCC4)c(C#N)c3)c2o1` (stereo not drawn) [Compound 513], the IC50 (on TBK1 (read-out: TBK1 IC50); on IKKε (read-out: IKKε IC50); in assay [1] (setting [2])) was under 100 nM in each case.

As to `COc1cc(C(=O)N(C)C)ccc1-c1cc2nccc(-c3ccc(NC4CCOCC4O)c(C#N)c3)c2o1` (stereo not drawn) [Compound 82], the results for the IC50 (at TBK1 (read-out: TBK1 IC50); on IKKε (read-out: IKKε IC50); in assay [1] (setting [2])) were under 100 nM, under 100 nM and 100 to 1000 nM, respectively.

Regarding `COc1cc(C(=O)N2CC3CCC(C2)O3)ccc1-c1cc2nccc(-c3ccc(NC4CCOCC4)c(C#N)c3)c2o1` [Compound 46, 5-{2-[2-Methoxy-4-(8-oxa-3-aza-bicyclo[3.2.1]octane-3-carbonyl)-phenyl]-furo[3,2-b]pyridin-7-yl}-2-(tetrahydro-pyran-4-ylamino)-benzonitrile], the half-maximal inhibitory concentration (IC50) is under 100 nM on TBK1 (read-out: TBK1 IC50), under 100 nM at IKKε (read-out: IKKε IC50) and 100 to 1000 nM in assay [1] (setting [2]).

Turning to `COc1cc(C(=O)NCC(C)(C)CN(C)C)ccc1-c1cc2nccc(-c3ccc(OC4CCOCC4)c(C#N)c3)c2o1` [Compound 506, 4-{7-[3-Cyano-4-(tetrahydro-pyran-4-yloxy)-phenyl]-furo[3,2-b]pyridin-2-yl}-N-(3-dimethylamino-2,2-dimethyl-propyl)-3-methoxy-benzamide], the concentration for half-maximal inhibition (IC50) is under 100 nM on TBK1 (read-out: TBK1 IC50), under 100 nM on IKKε (read-out: IKKε IC50) and 100 to 1000 nM in assay [1] (setting [2]).

For the compound `COc1cc(C(=O)N2CCC3(CC2)NCNC3=O)ccc1-c1cc2nccc(-c3ccc(NC4CCOCC4)c(C#N)c3)c2o1` [Compound 34, 5-{2-[2-Methoxy-4-(4-oxo-1,3,8-triaza-spiro[4.5]decane-8-carbonyl)-phenyl]-furo[3,2-b]pyridin-7-yl}-2-(tetrahydro-pyran-4-ylamino)-benzonitrile], the IC50 at TBK1 (read-out: TBK1 IC50) is under 100 nM; at IKKε (read-out: IKKε IC50), under 100 nM; in assay [1] (setting [2]), 100 to 1000 nM.

Consider `COc1cc(C(=O)N(C)C)cnc1-c1cc2nccc(-c3ccc(NC4CCN(C)C4)c(C#N)c3)c2o1` (stereo not drawn) [Compound 433, 6-(7-[3-cyano-4-[(1-methylpyrrolidin-3-yl)amino]phenyl]furo[3,2-b]pyridin-2-yl)-5-methoxy-N,N-dimethylpyridine-3-carboxamide], for which the IC50 (at TBK1 (read-out: TBK1 IC50); at IKKε (read-out: IKKε IC50); in assay [1] (setting [2])) was under 100 nM each time.

As to `COc1cc(C(=O)NC2CN3CCC2CC3)ccc1-c1cc2nccc(-c3ccc(NC4C5COCC54)c(C#N)c3)c2o1` (stereo not drawn) [Compound 119, N-(1-Aza-bicyclo[2.2.2]oct-3-yl)-4-{7-[3-cyano-4-(3-oxa-bicyclo[3.1.0]hex-6-ylamino)-phenyl]-furo[3,2-b]pyridin-2-yl}-3-methoxy-benzamide], the IC50 on TBK1 (TBK1 IC50) was under 100 nM; on IKKε, under 100 nM; in assay [1] (MDA-MB-468, read-out: pIRF3 IC50) it was under 100 nM.
